# In patent US6914045B2, “Glycopeptide antibiotics” (Wyeth Holdings Corporation, priority 2001, dated 2005):
# Experiments:
# Experiment in all cases: in vitro antibacterial evaluation, MIC by broth dilution
# Assay type in all cases: cell-based
# Escherichia coli = details: 18 hours at 35° C.
# Enterococcus sp. = details: broth dilution, 18 hours at 35° C.
# Procedure, shortened: (§1)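 MIC, the lowest antibiotic concentration preventing growth, was read across 64-0.06 μg/mL with 5×10^5 CFU/mL inoculum. Method followed NCCLS M7-A2 broth dilution using Mueller-Hinton II; Gram-positive strains covered recent methicillin-, penicillin- and/or vancomycin-resistant clinical isolates.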
# Staphylococcus sp. = details: broth dilution, 18 hours at 35° C.
# Procedure, shortened: as §1
# Streptococcus sp. = details: broth dilution, 18 hours at 35° C.
# Procedure, shortened: as §1
# [1] = inoculum 5×10^5 CFU/mL, strain GC 2242
# [2] = inoculum 5×10^5 CFU/mL, strain GC 2691
# [3] = inoculum 5×10^5 CFU/mL, strain GC 3059
# [4] = inoculum 5×10^5 CFU/mL, strain ATCC 6301
# [5] = inoculum 5×10^5 CFU/mL, strain GC 1894
# [6] = inoculum 5×10^5 CFU/mL, strain GC 4563
# [7] = inoculum 5×10^5 CFU/mL, strain GC 4564
# [8] = inoculum 5×10^5 CFU/mL, strain GC 4565
structure (smiles),measurement,setting,value
COc1ccc(COC2C(CO)OC(OC3C(CO)OC(Oc4ccc(CC5NC(=O)C(C(C)c6ccccc6)NC(=O)CNC(=O)C(CO)NC(=O)C(C(O)C6CNC(=N)N6C6OC(CO)C(O)C(O)C6O)NC(=O)C(C(O)C6CNC(=N)N6)NC5=O)cc4)C(O)C3O)C(O)C2O)cc1OCc1ccccc1 (centres unmarked) [Example 239a],MIC Escherichia coli (ATCC 25922),Escherichia coli,>64 µg/mL
same,MIC Escherichia coli (GC 4559),Escherichia coli,>64 µg/mL
same,MIC Escherichia coli (GC 4560),Escherichia coli,2 µg/mL
same,MIC Enterococcus avium (GC 4558),Enterococcus sp.,8 µg/mL
same,MIC Enterococcus faecalis (ATCC 29212),Enterococcus sp.,8 µg/mL
same,MIC Enterococcus faecalis (GC 2242),Enterococcus sp.,8 µg/mL
same,MIC Enterococcus faecalis (GC 2691),Enterococcus sp.,8 µg/mL
same,MIC Enterococcus faecalis (GC 3059),Enterococcus sp.,8 µg/mL
same,MIC Enterococcus faecalis (GC 4552),Enterococcus sp.,8 µg/mL
same,MIC Enterococcus faecalis (GC 4553),Enterococcus sp.,8 µg/mL
same,MIC Enterococcus faecalis (GC 4554),Enterococcus sp.,16 µg/mL
same,MIC Enterococcus faecalis (GC 6189),Enterococcus sp.,8 µg/mL
same,MIC Enterococcus faecium (GC 2243),Enterococcus sp.,8 µg/mL
same,MIC Enterococcus faecium (GC 4556),Enterococcus sp.,8 µg/mL
same,MIC Enterococcus faecium (GC 4557),Enterococcus sp.,4 µg/mL
same,MIC Enterococcus faecalis (ATCC 29212),Enterococcus sp.; strain ATCC 29212,8 µg/mL
same,MIC Enterococcus faecium (GC 2243),Enterococcus sp.; strain GC 2243,8 µg/mL
same,MIC Enterococcus faecalis (GC 4552),Enterococcus sp.; strain GC 4552,8 µg/mL
same,MIC Enterococcus faecalis (GC 4553),Enterococcus sp.; strain GC 4553,8 µg/mL
same,MIC Enterococcus faecalis (GC 4554),Enterococcus sp.; strain GC 4554,16 µg/mL
same,MIC Enterococcus faecium (GC 4556),Enterococcus sp.; strain GC 4556,8 µg/mL
same,MIC Enterococcus faecium (GC 4557),Enterococcus sp.; strain GC 4557,4 µg/mL
same,MIC Enterococcus avium (GC 4558),Enterococcus sp.; strain GC 4558,8 µg/mL
same,MIC Enterococcus faecalis (GC 6189),Enterococcus sp.; strain GC 6189,8 µg/mL
same,MIC Enterococcus faecalis (GC 2242),Enterococcus sp.; [1],8 µg/mL
same,MIC Enterococcus faecalis (GC 2691),Enterococcus sp.; [2],8 µg/mL
same,MIC Enterococcus faecalis (GC 3059),Enterococcus sp.; [3],8 µg/mL
same,MIC Coagulase Negative Staphylococcus (GC 4547),Staphylococcus sp.,2 µg/mL
same,MIC Coagulase Negative Staphylococcus (GC 4548),Staphylococcus sp.,1 µg/mL
same,MIC Coagulase Negative Staphylococcus (GC 4549),Staphylococcus sp.,2 µg/mL
same,MIC Coagulase Negative Staphylococcus (GC 4551),Staphylococcus sp.,2 µg/mL
same,MIC Coagulase Negative Staphylococcus (GC 6257),Staphylococcus sp.,2 µg/mL
same,MIC Staphylococcus aureus (ATCC 29213),Staphylococcus sp.,4 µg/mL
same,MIC Staphylococcus aureus (GC 1131),Staphylococcus sp.,4 µg/mL
same,MIC Staphylococcus aureus (GC 3051),Staphylococcus sp.,2 µg/mL
same,MIC Staphylococcus aureus (GC 3053),Staphylococcus sp.,4 µg/mL
same,MIC Staphylococcus aureus (GC 4541),Staphylococcus sp.,4 µg/mL
same,MIC Staphylococcus aureus (GC 4542),Staphylococcus sp.,4 µg/mL
same,MIC Staphylococcus aureus (GC 4544),Staphylococcus sp.,4 µg/mL
same,MIC Staphylococcus aureus (GC 4545),Staphylococcus sp.,4 µg/mL
same,MIC Staphylococcus aureus-SMITH (GC 4543),Staphylococcus sp.,2 µg/mL
same,MIC Staphylococcus haemolyticus (GC 4546),Staphylococcus sp.,2 µg/mL
same,MIC Staphylococcus aureus (ATCC 29213),Staphylococcus sp.; strain ATCC 29213,4 µg/mL
same,MIC Staphylococcus aureus (GC 1131),Staphylococcus sp.; strain GC 1131,4 µg/mL
same,MIC Staphylococcus aureus (GC 3051),Staphylococcus sp.; strain GC 3051,2 µg/mL
same,MIC Staphylococcus aureus (GC 3053),Staphylococcus sp.; strain GC 3053,4 µg/mL
same,MIC Staphylococcus aureus (GC 4541),Staphylococcus sp.; strain GC 4541,4 µg/mL
same,MIC Staphylococcus aureus (GC 4542),Staphylococcus sp.; strain GC 4542,4 µg/mL
same,MIC Staphylococcus aureus-SMITH (GC 4543),Staphylococcus sp.; strain GC 4543,2 µg/mL
same,MIC Staphylococcus aureus (GC 4544),Staphylococcus sp.; strain GC 4544,4 µg/mL
same,MIC Staphylococcus aureus (GC 4545),Staphylococcus sp.; strain GC 4545,4 µg/mL
same,MIC Staphylococcus haemolyticus (GC 4546),Staphylococcus sp.; strain GC 4546,2 µg/mL
same,MIC Coagulase Negative Staphylococcus (GC 4547),Staphylococcus sp.; strain GC 4547,2 µg/mL
same,MIC Coagulase Negative Staphylococcus (GC 4548),Staphylococcus sp.; strain GC 4548,1 µg/mL
same,MIC Coagulase Negative Staphylococcus (GC 4549),Staphylococcus sp.; strain GC 4549,2 µg/mL
same,MIC Coagulase Negative Staphylococcus (GC 4551),Staphylococcus sp.; strain GC 4551,2 µg/mL
same,MIC Coagulase Negative Staphylococcus (GC 6257),Staphylococcus sp.; strain GC 6257,2 µg/mL
same,MIC Streptococcus agalactiae (GC 4564),Streptococcus sp.,1 µg/mL
same,MIC Streptococcus pneumoniae (ATCC 6301),Streptococcus sp.,0.25 µg/mL
same,MIC Streptococcus pneumoniae (GC 1894),Streptococcus sp.,<0.06 µg/mL
same,MIC Streptococcus pneumoniae (GC 4565),Streptococcus sp.,0.25 µg/mL
same,MIC Streptococcus pyogenes (GC 4563),Streptococcus sp.,2 µg/mL
same,MIC Streptococcus pneumoniae (ATCC 6301),Streptococcus sp.; [4],0.25 µg/mL
same,MIC Streptococcus pneumoniae (GC 1894),Streptococcus sp.; [5],<0.06 µg/mL
same,MIC Streptococcus pyogenes (GC 4563),Streptococcus sp.; [6],2 µg/mL
same,MIC Streptococcus agalactiae (GC 4564),Streptococcus sp.; [7],1 µg/mL
same,MIC Streptococcus pneumoniae (GC 4565),Streptococcus sp.; [8],0.25 µg/mL
COc1ccc(COCC2OC(OC3C(CO)OC(Oc4ccc(CC5NC(=O)C(C(C)c6ccccc6)NC(=O)CNC(=O)C(CO)NC(=O)C(C(O)C6CNC(=N)N6C6OC(CO)C(O)C(O)C6O)NC(=O)C(C(O)C6CNC(=N)N6)NC5=O)cc4)C(O)C3O)C(O)C(O)C2O)cc1OCc1ccccc1 (centres unmarked) [Example 239],MIC Escherichia coli (ATCC 25922),Escherichia coli,>64 µg/mL
same,MIC Escherichia coli (GC 4559),Escherichia coli,>64 µg/mL
same,MIC Escherichia coli (GC 4560),Escherichia coli,1 µg/mL
same,MIC Enterococcus avium (GC 4558),Enterococcus sp.,4 µg/mL
same,MIC Enterococcus faecalis (ATCC 29212),Enterococcus sp.,4 µg/mL
same,MIC Enterococcus faecalis (GC 2242),Enterococcus sp.,4 µg/mL
same,MIC Enterococcus faecalis (GC 2691),Enterococcus sp.,4 µg/mL
same,MIC Enterococcus faecalis (GC 3059),Enterococcus sp.,4 µg/mL
same,MIC Enterococcus faecalis (GC 4552),Enterococcus sp.,4 µg/mL
same,MIC Enterococcus faecalis (GC 4553),Enterococcus sp.,4 µg/mL
same,MIC Enterococcus faecalis (GC 4554),Enterococcus sp.,4 µg/mL
same,MIC Enterococcus faecalis (GC 6189),Enterococcus sp.,4 µg/mL
same,MIC Enterococcus faecium (GC 2243),Enterococcus sp.,4 µg/mL
same,MIC Enterococcus faecium (GC 4556),Enterococcus sp.,4 µg/mL
same,MIC Enterococcus faecium (GC 4557),Enterococcus sp.,2 µg/mL
same,MIC Enterococcus faecalis (ATCC 29212),Enterococcus sp.; strain ATCC 29212,4 µg/mL
same,MIC Enterococcus faecium (GC 2243),Enterococcus sp.; strain GC 2243,4 µg/mL
same,MIC Enterococcus faecalis (GC 4552),Enterococcus sp.; strain GC 4552,4 µg/mL
same,MIC Enterococcus faecalis (GC 4553),Enterococcus sp.; strain GC 4553,4 µg/mL
same,MIC Enterococcus faecalis (GC 4554),Enterococcus sp.; strain GC 4554,4 µg/mL
same,MIC Enterococcus faecium (GC 4556),Enterococcus sp.; strain GC 4556,4 µg/mL
same,MIC Enterococcus faecium (GC 4557),Enterococcus sp.; strain GC 4557,2 µg/mL
same,MIC Enterococcus avium (GC 4558),Enterococcus sp.; strain GC 4558,4 µg/mL
same,MIC Enterococcus faecalis (GC 6189),Enterococcus sp.; strain GC 6189,4 µg/mL
same,MIC Enterococcus faecalis (GC 2242),Enterococcus sp.; [1],4 µg/mL
same,MIC Enterococcus faecalis (GC 2691),Enterococcus sp.; [2],4 µg/mL
same,MIC Enterococcus faecalis (GC 3059),Enterococcus sp.; [3],4 µg/mL
same,MIC Coagulase Negative Staphylococcus (GC 4547),Staphylococcus sp.,2 µg/mL
same,MIC Coagulase Negative Staphylococcus (GC 4548),Staphylococcus sp.,1 µg/mL
same,MIC Coagulase Negative Staphylococcus (GC 4549),Staphylococcus sp.,1 µg/mL
same,MIC Coagulase Negative Staphylococcus (GC 4551),Staphylococcus sp.,2 µg/mL
same,MIC Coagulase Negative Staphylococcus (GC 6257),Staphylococcus sp.,1 µg/mL
same,MIC Staphylococcus aureus (ATCC 29213),Staphylococcus sp.,2 µg/mL
same,MIC Staphylococcus aureus (GC 1131),Staphylococcus sp.,2 µg/mL
same,MIC Staphylococcus aureus (GC 3051),Staphylococcus sp.,1 µg/mL
same,MIC Staphylococcus aureus (GC 3053),Staphylococcus sp.,2 µg/mL
same,MIC Staphylococcus aureus (GC 4541),Staphylococcus sp.,4 µg/mL
same,MIC Staphylococcus aureus (GC 4542),Staphylococcus sp.,2 µg/mL
same,MIC Staphylococcus aureus (GC 4544),Staphylococcus sp.,2 µg/mL
same,MIC Staphylococcus aureus (GC 4545),Staphylococcus sp.,2 µg/mL
same,MIC Staphylococcus aureus-SMITH (GC 4543),Staphylococcus sp.,2 µg/mL
same,MIC Staphylococcus haemolyticus (GC 4546),Staphylococcus sp.,1 µg/mL
same,MIC Staphylococcus aureus (ATCC 29213),Staphylococcus sp.; strain ATCC 29213,2 µg/mL
same,MIC Staphylococcus aureus (GC 1131),Staphylococcus sp.; strain GC 1131,2 µg/mL
same,MIC Staphylococcus aureus (GC 3051),Staphylococcus sp.; strain GC 3051,1 µg/mL
same,MIC Staphylococcus aureus (GC 3053),Staphylococcus sp.; strain GC 3053,2 µg/mL
same,MIC Staphylococcus aureus (GC 4541),Staphylococcus sp.; strain GC 4541,4 µg/mL
same,MIC Staphylococcus aureus (GC 4542),Staphylococcus sp.; strain GC 4542,2 µg/mL
same,MIC Staphylococcus aureus-SMITH (GC 4543),Staphylococcus sp.; strain GC 4543,2 µg/mL
same,MIC Staphylococcus aureus (GC 4544),Staphylococcus sp.; strain GC 4544,2 µg/mL
same,MIC Staphylococcus aureus (GC 4545),Staphylococcus sp.; strain GC 4545,2 µg/mL
same,MIC Staphylococcus haemolyticus (GC 4546),Staphylococcus sp.; strain GC 4546,1 µg/mL
same,MIC Coagulase Negative Staphylococcus (GC 4547),Staphylococcus sp.; strain GC 4547,2 µg/mL
same,MIC Coagulase Negative Staphylococcus (GC 4548),Staphylococcus sp.; strain GC 4548,1 µg/mL
same,MIC Coagulase Negative Staphylococcus (GC 4549),Staphylococcus sp.; strain GC 4549,1 µg/mL
same,MIC Coagulase Negative Staphylococcus (GC 4551),Staphylococcus sp.; strain GC 4551,2 µg/mL
same,MIC Coagulase Negative Staphylococcus (GC 6257),Staphylococcus sp.; strain GC 6257,1 µg/mL
same,MIC Streptococcus agalactiae (GC 4564),Streptococcus sp.,0.25 µg/mL
same,MIC Streptococcus pneumoniae (ATCC 6301),Streptococcus sp.,<0.06 µg/mL
same,MIC Streptococcus pneumoniae (GC 1894),Streptococcus sp.,<0.06 µg/mL
same,MIC Streptococcus pneumoniae (GC 4565),Streptococcus sp.,<0.06 µg/mL
same,MIC Streptococcus pyogenes (GC 4563),Streptococcus sp.,0.25 µg/mL
same,MIC Streptococcus pneumoniae (ATCC 6301),Streptococcus sp.; [4],<0.06 µg/mL
same,MIC Streptococcus pneumoniae (GC 1894),Streptococcus sp.; [5],<0.06 µg/mL
same,MIC Streptococcus pyogenes (GC 4563),Streptococcus sp.; [6],0.25 µg/mL
same,MIC Streptococcus agalactiae (GC 4564),Streptococcus sp.; [7],0.25 µg/mL
same,MIC Streptococcus pneumoniae (GC 4565),Streptococcus sp.; [8],<0.06 µg/mL
